From PMC11793105, “A kalihinol analog disrupts apicoplast function and vesicular trafficking in P. falciparum malaria” (Science (New York, N.Y.), 2024)
Read-outs that look alike come from different tables or passages of the source.

Assays:
[1] = test system: PfSec13-mut transgenic clones (3D7); test: Parasite survival assay, CRISPR-Cas9 PfSec13-mut transgenic clones; assay type: cell-based; settings: Plasmodium falciparum
Source text: (§1) Fig. 4. […] (C) Schematic representation of the CRISPR-Cas9–based replacement strategy used to introduce a deletion of the targeted repeat regions in the PfSec13 gene. The insertion was achieved through overlap extension polymerase chain reaction (PCR) of fragments directly upstream and downstream of the target segment and subsequently formed by primer overlap extension PCR to replicate the desired deletion. […] (D) Predicted structure of the SEC13 protein highlighting the seven amino acid tandem repeat regions targeted for deletion (red). […] Data were analyzed using a Sigmoidal, 4PL (X represents concentration, n = 3, nonlinear regression, CI: 95%).
P. falciparum in vitro SYBR green fluorescence-based assays The anti-malarial activity of individual analogues were evaluated in-vitro against P. falciparum 3D7 (MRA-102, drug […]
green-I based fluorescence assay. Parasite growth rate and stages of development were determined via microscopy through Giemsa-stained smears of the cultures. Serial dilutions of the compounds ranging from 10uM-0.5nM were prepared in 96-well plates (Corning, Costar 3904) followed by […]
hematocrit added to each well. Eight wells were treated with vehicle control (DMSO) as control.
Plates were incubated in a modular incubation chamber (Billups-Rothenberg, Del Mar, CA)

[2] = test system: P. falciparum 3D7 parasites; test: Isopentenyl pyrophosphate (IPP) rescue assay; assay type: cell-based, Plasmodium falciparum; settings: drug at IC80 for one IEC before IPP (200 μM)
Source text: Fig. 2. […] Nuclei are stained with 4’,6-diamidino-2-phenylindole (DAPI; blue). […] (B) Dose-dependent interactions between MED6-189 (blue) and various antimalarials with known mechanisms of action (red). […] The regression line represents a nonlinear regression (variable slope with four parameters), with significant differences considered if P < 0.05. […] Isobologram curves are expected to be parallel to the diagonal for additive drug pairs, concave for synergistic drug pairs, and convex for antagonistic drug pairs. […] The analysis was performed using a two-way ANOVA, n = 3, with P < 0.05 significance.
IPP is a product of the MEP/DOXP pathway, and its supplementation reduces susceptibility to MEP inhibitors. […] Parasites were drugged at 80% inhibitory concentrations (IC80) for one IEC before IPP (200 μM) supplementation.

[3] = test system: S. cerevisiae strains with overexpressed or repressed Sec13p; assay type: cell-based, Saccharomyces cerevisiae; settings: Tet-off promoter, doxycycline, vs WT yeast
Source text: as §1
PCR amplification and introduced into an episomal E. coli/yeast shuttle vector, pRS425, by using an in-fusion cloning kit (Takara Bio USA, Inc) and the resulting pRS425-SEC13 plasmid was transformed into the BY4741 yeast strain. To swiftly repress the SEC13 gene, we utilized the tet-off system. This involved substituting the native SEC13 gene promoter with a tetracycline (tet)- regulatable counterpart, while leaving the original SEC13 open reading frame intact. The yeast

HepG2 = test: Human cell line activity, HepG2; assay type: cell-based; settings: HepG2, read-out: IC50 (µM) HepG2
[4] = Tolerability study and toxicological profile; assay type: in vivo, Male CD1 mouse; settings: for adverse effects (Functional Observational Battery): oral
Method: Tolerability studies used Male CD1 (20-22 g Envigo).
Blood samples for analysis were carried out in the Abacus5 junior Vet (Practice CVM S.L.L). Clinical chemistry was performed by mean analysis of whole blood in Vetscan (ABAXIS) and F560 (Menarini) analyzer and by mean analysis of plasma.
Tolerability study Male CD1 (20-22g Envigo) were used in tolerability studies.
All animal studies were ethically reviewed and carried out in accordance with European Directive
were housed in cages (Tecniplast®). The cages contained autoclaved dust free corncob bedding
(Rehofix MK2000, 1.7-2.2 mm particle size) and carry filters covers. Animal maintenance
standard g-irradiated standard rodent diet (Envigo Teklad 2914) and ultra-filtered water was
provided ad libitum. Environmental conditions: Photoperiods, simulated dawn/dusk facility, were
adjusted to 12h of light (300 lux) and 12h darkness daily. The temperature range was 22± 2 °C.
Relative humidity was 55% ± 10 and the air room was changed 15-20 times per hour.
Environmental enrichment included nesting material (nesting cups, LBS), a red-tinted igloo
(Datesand), a hanging clear tunnel (Datesand, and two wood blocks (Datensand).
Protocol design Male CD1 mouse (n=1) was dosed with an initial dose at 100 mg/kg (1-day, oral
route, once a day, 10ml/kg). The animals were observed during the first four hours after
administration and after 24h. The neurobehavioral assessment Functional Observational Battery
the modified symptom-based Up-&-Down method and adjusted a constant factor (1.6). Other male
Two mice were treated at 50
To confirm the data, 3 animals per dose
(100mg/kg and 63.4 mg/kg) and vehicle group with 1% Methylcellulose + 0.5% Tween (n=2) were
dosed. Systemic exposure levels at different times were taken (0.5h, 2h, 4h, 8, 24, 48h) of treated
animals (n=3 per group) and a toxicological profile was performed after 7 days of treatment
(hematology, clinical chemistry, and necropsy). Additionally in the same animals with the same
scheduling sampling, blood samples of 15 uL were taken from lateral tail vein and recovered in a
vial with the same quantity of water, mix and freeze until bioanalytical quantification for the
determination of blood level exposures and pharmacokinetic analysis.
Toxicological Profile The bodyweight of animals was recorded before dosage, 24 hours after and
every day in animals kept for 7 days. Any sign of toxicity was recorded for 4h and 24h hours after
drug administration (Functional Observational Battery). All animals were sacrificed by CO2
inhalation. Blood samples for analysis were then taken by intracardiac puncture and fractionated
to blood recount and serum analysis. The blood recount was carried out in the Abacus5 junior Vet
→ (Practice CVM S.L.L). Clinical chemistry was performed by mean analysis of whole blood in
Vetscan→ (ABAXIS) & F560 (Menarini→) analyzer and by mean analysis of plasma, obtained
after centrifugation at 1800g rpm for 10 min in S-Microvette tubes (Sarstedt→) with Heparin-
Lithium. The plasma parameters tested were: glucose, ALP, AST, ALT, GGT, LDH, AMY, CK
Calcium, Phosphate, Sodium, Potassium, total bilirrubin, total protein, albumin, blood ureic
nitrogen (BUN), creatinine, triglycerides, cholesterol. After necropsy, several organs (liver,
kidney, spleen, Caecum, and stomach) were removed and weighed. Liver, kidney, and spleen were
fixed in formalin (formaldehyde 10%) to further histopathology study (Hematoxilin/Eosin stain).

[5] = Pharmacokinetics after oral administration to P. falciparum-infected mice (Table S10); assay type: in vivo, P. falciparum-infected SCID mice; settings: for Cmax: 50mg/kg oral in 1% Methylcellulose; for AUC(0-inf): read-out: AUCINF_obs
Method: An Acquity ultra-performance liquid chromatography (UPLC) system (Waters Corp., Milford, MA, USA) couple to a triple quadrupole mass spectrometer (API 4000, AB Sciex, Foster City, CA, USA) was used for the analysis ([99]).
Blood concentration time data were analyzed by Non-Compartmental PK analysis using Phoenix WinNonlin software (Certara, NY, US) to calculate PK parameters. […]
mg/kg per day for four consecutive days. Treatment started at day 3 and finished at day 6 after infection. In all cases, parasitemia was assessed in samples from peripheral blood obtained at days 3, 4, 5, 6, and 7 after infection. Fresh samples of peripheral blood from P. falciparum-infected mice were stained with TER-119-Phycoerythrine (marker of murine erythrocytes) and SYTO-16 (nucleic acid dye) and then analyzed by flow cytometry (FACSCalibur, BD). Efficacy was determined using flow cytometry data as the percentage of Parasitemia reduction compared with […]
blood samples obtained during the 23 h period after the first dose in all mice. Peripheral blood samples (15 µL) were taken at frequent intervals, mixed with 30 µL of H2O milli Q and immediately frozen on dry ice. The frozen samples were stored at −80 °C until analysis. Vehicle-treated mice experienced the same blood-sampling regimen (table S9, S10).
Bioanalysis and pharmacokinetics analysis: LC-MS
Bioanalysis of in vivo samples: Sample pretreatment Before the analysis 15ul of blood samples were defrost at ambient temperature and mixture with 200ul of ACN:MeOH (80:20). After protein precipitation samples were filtered by 0.45um filter plate (Multiscreen Solvinert 0.45um FTPE, Millipore). The 2ul TFA (Trifluoroacetic acid, sigmaAldrich) were added to each filtered sample in order to derivatize the compound to formamide analogue. This process occurs spontaneously.
LC-MS analysis An Acquity Ultra-Performance liquid chromatography (UPLC) system (Waters Corp., Milford, MA, USA) couple to a triple quadrupole mass spectrometer (API 4000™, AB Sciex, Foster City, CA, USA) was used for the analysis. The MS/MS transition was 311.340 / […]
The chromatographic separation was carried out at 0.4ml/min in a Acquity UPLC™ BEH C18 column (50x2.1 mm i.d., […]; Waters Corp.) at 40 °C with Acetonitrile (sigmaAldrich) and 0.1% formic acid as eluents.
Pharmacokinetic analysis Blood concentration time data were analyzed by Non-Compartmental PK analysis using Phoenix WinNonlin software (Certara NY, US) to calculate PK parameters. The maximum observed concentration (Cmax) and the time to reach it (Tmax), were determined. The area under concentration-time curve from dosing at time zero to the last measured concentration […]
time (AUClast) and the total area under concentration-time curve from time zero extrapolated to infinity (AUCinf), were calculated using a linear trapezoidal rule. […]

[6] = test system: P. falciparum metabolites; test: LC-MS metabolomic profiling (lipids and polar metabolites); assay type: cell-based, Plasmodium falciparum; settings: treated parasites, second IEC (72 hours after treatment)
[7] = 50mg/kg oral, infected mice, individual mice
[8] = SCID, mouse, whole blood, po, 50 mg/kg, 50mg/kg oral, infected mice, Mean
[9] = SCID, mouse, whole blood, po, 50 mg/kg, 50mg/kg oral, infected mice, individual mice

## [C-]#[N+][C@]1(C)CC[C@H]2[C@@H]([C@@H](C(C)C)CC[C@]2(C)[N+]#[C-])[C@H]1O [MED6-189]
[1]; 3D7, Sec13 mut-A
  IC50: 59.8 nM
[1]; 3D7, Sec13 mut-B
  IC50: 53.5 nM
[1]; 3D7, Sec13 mut-C
  IC50: 49.5 nM
[1]; 3D7, Sec13 mut-D
  IC50: 72.9 nM
[1]; 3D7, read-out: IC50 range, four PfSec13-mut transgenic clones
  IC50: 50 to 73 nM
[2]
  rescue of parasites by IPP supplementation: can only be rescued by IPP for one additional cycle
[3]
  increase in susceptibility on Sec13p repression: ~ 5.5 fold
HepG2
  IC50: 34 µM
[4]; 50 mg/kg, two mice
  adverse effects (Functional Observational Battery): didn´t show adverse effects
[4]; 62.5mg/kg, one mouse
  adverse effects (Functional Observational Battery): showed adverse effects
[4]; 100 mg/kg, once, n=1
  adverse effects (Functional Observational Battery): Adverse effects were found
[4]; doses up to 50 mg/kg
  adverse events: did not exhibit any adverse events
  hematology, clinical chemistry, necropsy: no significant changes
[5]; 50 mg/kg oral every 24h, four days
  accumulation in blood (levels at 96 hrs): no accumulation
[5]; infected mice, individual mice 1 and 2
  Cmax: 8980 ng/mL
[5]; 50mg/kg oral, infected mice, Mean
  Tlast: 24 h
[5]; [7]
  AUCINF_obs: 115.877 µg·h/mL
  AUClast: 114.617 µg·h/mL
  Tlast: 24 h
[5]; SCID, mouse, whole blood, po, 50 mg/kg, infected mice, Mean, read-out: Cmax
  Cmax: 7920 ng/mL
[5]; SCID, mouse, whole blood, po, 50 mg/kg, infected mice, individual mice 1 and 2, read-out: Cmax
  Cmax: 6860 ng/mL
[5]; [8]
  AUC(0-t): 101 µg·h/mL
  AUC(0-inf): 105 µg·h/mL
[5]; [9]
  AUC(0-t): 86.8 µg·h/mL
  AUC(0-inf): 94.1 µg·h/mL
[5]; SCID, mouse, whole blood, 50mg/kg oral, infected mice, individual mice
  Tmax: 7 h
[6]
  increase in lysophosphatidylcholine (LPC) steady-state levels: ~3.5 fold
